Here are results for 3 molecules from patent publication US7902327B2, “Dendrimeric peptides, pharmaceutical compositions and methods of using the same” (New York University School of Medicine, priority 2007, dated 2011).

SMILES strings stand for the structures. Values after ≈ are worked out from the molar mass of the structure shown. Where a SMILES comes first, the peptide text is derived from it. Side-chain parts run from the residue outwards. [ ]: non-standard residue; d: D form. The star is where a group is joined. Lys(α,ε-(ArgTrp)2) = N=C(N)NCCC[C@H](N)C(=O)N[C@@H](Cc1c[nH]c2ccccc12)C(=O)NCCCC[C@H](NC(=O)[C@H](Cc1c[nH]c2ccccc12)NC(=O)[C@@H](N)CCCNC(=N)N)C(=O)*; NHBn = c1ccc(CN*)cc1; OBn = c1ccc(CO*)cc1; X1 = CCCCCCCCCN*; βAla = NCCC(=O)O

This assay deals with E. faecalis (29212). The following applies: 29212.
As for `N=C(N)NCCC[C@H](N)C(=O)N[C@@H](Cc1c[nH]c2ccccc12)C(=O)NCCCC[C@H](NC(=O)[C@H](Cc1c[nH]c2ccccc12)NC(=O)[C@@H](N)CCCNC(=N)N)C(=O)NCCCC[C@H](NC(=O)[C@H](CCCCNC(=O)[C@H](Cc1c[nH]c2ccccc12)NC(=O)[C@@H](N)CCCNC(=N)N)NC(=O)[C@H](Cc1c[nH]c2ccccc12)NC(=O)[C@@H](N)CCCNC(=N)N)C(=O)NCCC(=O)NCc1ccccc1` [(RW)4D-Benzyl amine] (H-RWK([Trp-Arg])K(Lys(α,ε-(ArgTrp)2))[βAla]-NHBn), the “MIC50 E. faecalis” value stood at 5.1 µg/mL (≈ 2.64 µM).
With `N=C(N)NCCC[C@H](N)C(=O)N[C@@H](Cc1c[nH]c2ccccc12)C(=O)NCCCC[C@H](NC(=O)[C@H](Cc1c[nH]c2ccccc12)NC(=O)[C@@H](N)CCCNC(=N)N)C(=O)NCCCC[C@H](NC(=O)[C@H](CCCCNC(=O)[C@H](Cc1c[nH]c2ccccc12)NC(=O)[C@@H](N)CCCNC(=N)N)NC(=O)[C@H](Cc1c[nH]c2ccccc12)NC(=O)[C@@H](N)CCCNC(=N)N)C(=O)NCCC(=O)OCc1ccccc1` [(RW)4D-Benzyl ester] (H-RWK([Trp-Arg])K(Lys(α,ε-(ArgTrp)2))[βAla]-OBn), the “MIC50 E. faecalis” value was found to be 6.7 µg/mL (≈ 3.47 µM).
Turning to `CCCCCCCCCNC(=O)CCNC(=O)[C@H](CCCCNC(=O)[C@H](CCCCNC(=O)[C@H](Cc1c[nH]c2ccccc12)NC(=O)[C@@H](N)CCCNC(=N)N)NC(=O)[C@H](Cc1c[nH]c2ccccc12)NC(=O)[C@@H](N)CCCNC(=N)N)NC(=O)[C@H](CCCCNC(=O)[C@H](Cc1c[nH]c2ccccc12)NC(=O)[C@@H](N)CCCNC(=N)N)NC(=O)[C@H](Cc1c[nH]c2ccccc12)NC(=O)[C@@H](N)CCCNC(=N)N` [(RW)4D-Nonylamine] (H-RWK([Trp-Arg])K(Lys(α,ε-(ArgTrp)2))[βAla]-X1), the “MIC50 E. faecalis” value worked out at 5.7 µg/mL (≈ 2.9 µM).
